Laboratory results from patent US7981939B2, “Application of 2-bromide-isovanillin for the manufacture of a medicament for anti-cancer or/and radiation/chemotherapy sensitization” (Institute of Radiation Medicine, Academy of Military …, priority 2005, dated 2011).

What was measured:
[1] = molecular target: T1, nuclear protein DNA-PKcs serine/threonine protein kinase (Homo sapiens, UniProt P78527); experiment: DNA-PKcs kinase activity in nuclear protein of treated HepG2 cells; type: cell-based; conditions: HepG2, 100 μmol/L, 24 hrs
T1 construct: adding nuclear proteins to the solid phase reaction system; endogenous in cells; host or cells: HepG2 human liver cancer cells (nuclear protein extract)
Method: The activity of nuclear protein DNA-PKcs serine/threonine protein kinase in human liver cancer cells HepG2 treated with 0, 10, 20, 40, 100 μmol/L 2-bromo-isovanillin for 24 hrs was determined by using […] DNA dependent protein kinase assay kit (Promega), according to the manufacturer's instructions, and the treatment with 100 μmol/L vanillin for the same period of time served as control. Basically, the assay was carried out by immobilizing the phosphorylation substrate specific to DNA-PKcs, i.e., a peptide derived from p53 protein onto a cellulose membrane, adding nuclear proteins to the solid phase reaction system, isotopically labeling the substrate by phosphorylation using γ-^32P ATP, removing non-specific signals after the isotope labeling, and visualizing the kinase activity upon X-ray film developing.

[2] = tested on: human cervical cancer cell line HeLa; experiment: MTT assay, proliferation of HeLa cells; type: cell-based; conditions: for effect on the proliferation of HeLa cells: concentrations of less than 40 μmol/L, up to 72 hrs
Method: Human cervical cancer cell line HeLa, human liver cancer cell line HepG2/7221/7402, human ovarian cancer cell line HOC8/A2780, human glioma cell line BT325, lung cancer cell line A549, brain metastatic lung cancer cell line BT72 and normal human hepatic cell line LO2 were all grown in DMEM liquid medium supplemented with 10% newborn calf serum. Human leukemia cell line Jurkat was grown in 1640 medium supplemented with 10% newborn calf serum. The above cell lines were cultured in a CO2 incubator at 5% CO2 at 37° C.
By way of example, human cervical cancer cell line HeLa was used to study the effect of vanillin on the proliferation of cancer cells by MTT assay. Specifically, human cervical cancer cells HeLa were seeded into a 96-well plate at a density of 5×10^3 cells/well, and were divided into four groups. To each of the groups vanillin was added at a concentration of 0, 100, 250 or 500 μmol/L, respectively, and was allowed to grow for 4 days. Using the MTT assay, the optical density (OD) values at 490 nm were measured and recorded every day, wherein the OD value is indicative of the number of cells, i.e., the proliferation of cells.
By way of example, human cervical cancer cell line HeLa was used to study the effect of several vanillin derivatives for 72 hrs on the proliferation of cancer cells by MTT assay. Specifically, human cervical cancer cells HeLa were seeded into a 96-well plate at a density of 5×10^3 cells/well, and were divided into four groups. To each of the groups were added increasing concentrations (0, 10, 20, 30, 40 μmol/L) of vanillin derivatives ethyl vanillin (Code No. VAND3206), 4-methoxy vanillin (Code No. VAND3207), isovanillin (Code No. VAND3209) and 2-bromo-isovanillin (Code No. VAND3208), and the cells were cultured for 72 hrs. Using the MTT assay, the optical density (OD) values at 490 nm were measured and recorded every day, wherein the OD value is indicative of the number of cells, i.e., the proliferation of cells.
By way of example, human cervical cancer cell line HeLa was used to study the inhibitory effect of 2-bromo-isovanillin at different concentrations for different periods of time on the proliferation of cancer cells by MTT assay. Specifically, human cervical cancer cells HeLa were seeded into a 96-well plate at a density of 5×10^3 cells/well, and were divided into […]. To each of the groups 2-bromo-isovanillin was added at a concentration of 0, 10, 20, 30, 40 or 50 μmol/L, and was cultured for 14 days, respectively. Using the MTT assay, the optical density (OD) values at 490 nm were measured and recorded every day, wherein the OD value is indicative of the number of cells, i.e., the proliferation of cells.

Row | Compound | inhibitory effect on DNA-PKcs kinase activity compared with 2-bromo-isovanillin [1] | concentration at which proliferation of cancer cells was effectively inhibited ([2]; HeLa, 0-500 μmol/L, 4 days, OD at 490 nm) | effect on the proliferation of HeLa cells [2]
1 | COc1cc(C=O)ccc1O [vanillin] | significantly weaker | above 250 μmol/L | –
2 | COc1ccc(C=O)cc1O [VAND3209, isovanillin] | – | – | no inhibitory effect
3 | CCOc1cc(C=O)ccc1O [ethyl vanillin] | – | – | no inhibitory effect
